Laboratory results as given in patent EP0092121A1, “Methods and compositions for treating gastro-intestinal ulcer diesease” (BOARD OF REGENTS THE UNIVERSITY OF TEXAS SYSTEM, priority 1982, dated 1983).

System: acute pylorus-ligated rat preparation
Assay: In vivo protection against acid-induced gastric damage in HCl-challenged rats (gross examination, gastric hemoglobin)
Settings: individual phospholipid, gastric sample hemoglobin after 0.6 N HCl
Protocol: Applicants directly investigated this question in an acute pylorus-ligated rat preparation, in which test agents could be administered directly into the stomach by way of an esophageal cannula. Rats were fasted overnight and maintained under Nembutal anesthesia throughout the study period. The rats were divided into two groups (3 rats/grp); one group which was designated "surfactant treated" received 0.5 ml of a liposomal suspension in saline of the following phospholipids: […], 15 µg of DPPE, DPPG, DPPI and Sphingomyelin; and the second group (controls) was intragastrically injected with 0.5 ml of saline. Five minutes later both groups received 1 ml of an ulcerogenic dose of 0.6 N HCI. The anesthetized animals were left undisturbed for 45 minutes, after which they were sacrificed, and the stomachs excised, opened along the greater curvature and examined.
In another series of in vivo experiments, the individual phospholipids: dipalmitoyl lecithin, dipalmitoyl phosphatidyl ethanolamine, and phosphatidyl choline were tested for anti-ulcer activity. The experiments were performed as described above. In addition, immediately before the rat was sacrificed, a gastric sample was withdrawn for hemoglobin analysis. […] Sample anti-ulcer activity was measured as a percent of hemoglobin count relative to hemoglobin detected from animals pretreated with the combination of 135 µg DPL, 15 µg of DPPE, DPPG, DPPI and sphingomyelin mixture.
Anti-ulcer activity was inversely proportional,to the amount of hemoglobin detected. Table I tabulates the relative anti-ulcer activity of the individually tested phospholipids.

Molecule: CCCCCCCCCCCCCCCC(=O)OCC(COP(=O)([O-])OCC[N+](C)(C)C)OC(=O)CCCCCCCCCCCCCCC (stereo not drawn) [Dipalmitoyl lecithin, dipalmitoyl lecithin]
- ACTIVITY (anti-ulcer activity, hemoglobin count relative to mixture) (15 µg): 95%
- ACTIVITY (anti-ulcer activity, hemoglobin count relative to mixture) (135 µg): 90%

Molecule: phosphatidylcholine [Phosphatidyl choline]
- ACTIVITY (anti-ulcer activity, hemoglobin count relative to mixture) (15 µg): 80%
- ACTIVITY (anti-ulcer activity, hemoglobin count relative to mixture) (135 µg): 80%

Molecule: CCCCCCCCCCCCCCCC(=O)OCC(COP(=O)(O)OCCN)OC(=O)CCCCCCCCCCCCCCC (stereo not drawn) [Dipalmitoyl phosphatidyl ethanolamine, dipalmitoyl phosphatidyl ethanolamine]
- ACTIVITY (anti-ulcer activity, hemoglobin count relative to mixture) (15 µg): 75-80%
- ACTIVITY (anti-ulcer activity, hemoglobin count relative to mixture) (135 µg): 70%
